From US8227457B2, “Method for treatment of diseases” (DMI Acquisition Corp., priority 2009, dated 2012)

Experiments:
[1] = tested on: human retinal endothelial cells; experiment: Actin stress fiber formation (rhodamine-phalloidin F-actin staining), TNFα, Example 7; details: 30 minutes
[2] = tested on: human retinal endothelial cells; experiment: Actin stress fiber formation, Example 11, retinal cells
Akt = Akt phosphorylation (CASE ELISA kit for AKT S473) in retinal endothelial cells; format: cell-based, human; details: all of the concentrations (0.5-50.0 μM)
Description: The cells were grown in a 25 cm^2 flask to near confluence in EGM-2 medium (Lonza, Walkersville, Md.) containing 2% fetal calf serum (Lonza). […] The plate was incubated at 37° C. with 5% CO2 for 24 hours. […] After this incubation, the cells were fixed immediately with 4% formaldehyde, refrigerated, and the extent of phosphorylation of Akt determined using the Akt Cellular Activation of Signaling ELISA Kit (CASE™ Kit for AKT 5473; SABiosciences, Frederick, Md.) following the manufacturer's protocols. The CASE™ Kit for AKT S473 quantifies the amount of activated (phosphorylated) Akt protein relative to total Akt protein in parallel assays using a conventional ELISA format with colorimetric detection. The Akt phosphorylation site is serine 473 and is recognized by one of the antibodies used in one of the two parallel assays to provide a measure of activated Akt protein. The other antibody used in the other parallel assay recognizes Akt to provide a measure of total Akt protein. Both primary antibodies are detected using a horseradish peroxidase-labeled secondary antibody. Addition of the manufacturer's Developing Solution for 10 minutes, followed by addition of the manufacturer's Stop Solution, produces the result which can be measured colorimetrically.

HUVECs [3] = experiment: HUVEC invasion (BioCoat Matrigel Invasion Chambers); format: cell-based, human; details: 10 μM and 100 μM, 24 hours
Description: BioCoat Matrigel Invasion Chambers were purchased from BD Biosciences (San Jose, Calif.). Inserts were rehydrated at 37° C. with 500 μl HBSS for 2 hours prior to use in humidified incubator. Trypsinized HUVECs were washed twice with warm EGM-2 containing 0.1% FCS and added to the upper chamber of the invasion insert at 100,000 cells in a total volume of 250 μl. […]. Non-invasive cells were removed from the upper chamber with moistened cotton swabs and then the inserts were washed twice with HBSS. The inserts were then submerged in 10 μM calcein AM prepared in HBSS and incubated for 4 hours. Fluorescence was determined in a microplate reader at 485 nm excitation and 595 nm emission.
All data is presented as representative experiment done in triplicate. Differences between subsets were analyzed using student t-test in Microsoft Excel. P<0.05 was considered statistically significant.

[4] = tested on: human retinal endothelial cells; experiment: TER of retinal endothelial cell monolayers with steroid receptor antagonists, Example 6; details: for effect on TER compared to the control: 0.1 μM, Example 6
VE-Cadherin = experiment: VE-cadherin phosphorylation (immunoprecipitation, Pro-Q diamond / SYPRO ruby densitometry); format: cell-based, human; details: danazol 0.1 μM, VEGF 50 ng/ml
Description: The plates were immediately treated to lyse the cells as follows. PBS and the lysis buffer (PBS containing 1% Triton X-100 supplemented with phosphatase inhibitor solutions 1 and 2 (Sigma), protease inhibitor (Sigma) and sodium orthovanadate at a final concentration of 2 mM) were cooled to 4° C. The cells were washed two times with 5 ml of the ice cold PBS and then lysed in 500 μl of the ice cold lysis buffer. The resulting protein extracts were transferred to 1.7 ml microcentrifuge tubes, and cell debris was removed by spinning at 4° C. at 10,000 rpm for 10 minutes. Then, 450 μl of the cleared solution was transferred to tubes containing 25 μl of Protein Dynabeads (Invitrogen) coated with 10 μl C19 anti-VE cadherin polyclonal antibody (Santa Cruz Biotechnology) (coating performed following manufacturer's protocol). The extracts and beads were then incubated overnight at 4° C. on an orbital shaker to capture VE cadherin from the extracts. The beads were then washed four times with ice cold lysis buffer. To release the protein from the beads, they were heated for 10 minutes at 75° C. in SDS loading dye containing 20% reducing dye (Invitrogen).
The released proteins were separated in 4-20% polyacrylamide gels (Invitrogen) at 120 volts for 1 hour. To determine phosphorylation and total protein in the gels, Pro-Q diamond (Invitrogen) and SYPRO ruby (Invitrogen) protein staining were sequentially performed following the manufacturer's protocol. The gels were photographed and densitometry performed using a Kodak imaging station.

[5] = tested on: human retinal endothelial cells; experiment: Transendothelial electrical resistance (TER), Example 4, retinal cells; format: cell-based; details: 1 μM, retinal endothelial cell monolayers
Description: (§1) […]. Assays were also performed in the same manner using passage 8 human brain endothelial cells and passage 8 human umbilical vein endothelial cells.
(§2) An initial TER measurement was taken for each insert using EVOM^2 voltohmmeter connected to an STX100 electrode (both from World Precision Instruments). Measurements were also taken at 24, 48, 72 and 144 hours. All data are presented as TER measurements/cm^2 of insert with TER of blank inserts subtracted.

[6] = tested on: human umbilical vein endothelial cells; experiment: Transendothelial electrical resistance (TER), Example 4, HUVEC; format: cell-based; details: 1 μM, umbilical vein endothelial cell monolayers
Description: as §1, §2

HUVECs [7] = experiment: HUVEC scratch migration assay; format: cell-based, human; details: 50 μM, 75 μM and 100 μM
Description: Passage 8 HUVECs, lot number 8750 (obtained from Lonza), were plated in 6-well plates (ICS BioExpress) in endothelial growth medium-2 (EGM-2) complete medium (obtained from Lonza). […] The monolayers were then “scratched” with a 1000 μl pipet tip and washed two times with warm EGM-2 medium. […] The wells were photographed again. The gaps were measured in each photograph using Adobe Photoshop software, and gap measurements are presented as the number of pixels in the gap.

[8] = tested on: human brain endothelial cells; experiment: Transendothelial electrical resistance (TER), Example 4, brain cells; format: cell-based; details: 1 μM, brain endothelial cell monolayers, except at the earliest time point
Description: as §1, §2

[9] = tested on: human renal glomerular microvascular endothelial cells; experiment: Actin stress fiber formation, Example 11, glomerular cells; details: danazol 1 μM with TNFα 1 ng/ml
[10] = tested on: human retinal endothelial cells; experiment: TER of retinal endothelial cell monolayers with steroid receptor antagonists and hormones, Example 10; details: for effect on TER compared to the control: Example 10, concentrations of Table 10
[11] = tested on: human renal glomerular microvascular endothelial cells; experiment: ECIS, Example 12, glomerular cells; details: danazol 1 μM, S1P 1 μM
[12] = tested on: human retinal endothelial cells; experiment: Actin stress fiber formation (rhodamine-phalloidin F-actin staining), VEGF, Example 8; format: cell-based; details: for effect on VEGF-induced stress fiber pattern: then VEGF 25 ng/ml 30 minutes
Description: . […] To counter-stain for nuclei, 100 μl of a 3 μM DAPI (4,6-diamidino-2-phenylindole, dilactate (Invitrogen)) solution was added to each well. After 5 minutes, the cells were washed two times with 100 μl PBS.

HUVECs [13] = experiment: HUVEC tube formation assay on matrigel plugs; format: cell-based, human; details: 18 hours, 5% FCS
Description: To investigate the formation of capillary-like structures by HUVECs, the Angiogenesis System: Endothelial Cell Tube Formation Assay was purchased from BD Biosciences (San Jose, Calif.) and used according to the manufacturer's protocol. In brief, 100,000 HUVECs were seeded onto rehydrated matrigel plugs in 96 well tissue culture plates in the presence of 5% FCS to induce tube formation.
Endothelial cells when cultured in the presence of angiogenic substances and supplied with an extracellular matrix scaffold will differentiate into structures loosely resembling capillary vessels.

[14] = tested on: Primary human umbilical vein endothelial cells (HUVECs); experiment: HUVEC cell proliferation (Celltiter 96 AQueous One Solution assay); format: cell-based; details: 100 μM danazol, all time points
Description: Primary human umbilical vein endothelial cells (HUVECs) and EGM-2 growth medium were obtained from Cambrex (Walkersville, Md.). The cells were passaged in medium supplemented with 2% fetal calf serum (FCS) in tissue culture flasks at 37° C. and 5% CO2. Subculturing was performed using trypsin when 60-80% confluence was obtained as specified by the supplier.
Cryopreserved ampoules of passage 2 HUVECs were thawed and plated in 96 well tissue culture plates at 5,000 cells/cm^2. […]. In short, medium was aspirated from each well and the cells were washed with 200 μl Hepes buffered saline (HBSS) from Cambrex warmed to 37° C. 100 μl diluted celltiter solution (15 μl stock+85 μl EGM-2 containing 0.1% FCS) were added to each well and incubated for an additional 4 hours. Optical density was determined by microplate reader using a 530 nm filter after blank subtraction and data presented as OD±standard deviation. The final concentration of ethanol in the wells was less then 0.2% and had no effect on cell proliferation or viability.
All data are presented as representative experiments done in triplicate. Differences between subsets were analyzed using student t-test in Microsoft Excel. P<0.05 was considered statistically significant.
[…]. The celltiter assay is based on the reduction of the assay solution by dehydrogenase enzymes to a formazan dye that directly correlates to cell number.

[15] = tested on: human retinal endothelial cells; experiment: ECIS (electric cell-substrate impedance sensing), Example 12, retinal cells
[16] = 0.1 μM hydroxyflutamide followed by 0.1 μM danazol

With TNFα the F-actin staining pattern ([1]; TNFα 50 ng/ml alone) was “strong stress fiber development with intensely staining focal points”.
With `C#C[C@]1(O)CC[C@H]2[C@@H]3CCC4=Cc5oncc5C[C@]4(C)[C@H]3CC[C@@]21C` [Danazol, 17α-pregna-2,4-dien-20-yno[2,3-d]isoxazol-17β-ol] the F-actin staining pattern ([1]; 0.1 μM danazol) was “diffuse staining throughout the cytoplasm”, the F-actin staining pattern ([1]; 10.0 μM danazol) was “stress fibers with multiple focal points” and the “effect on TNFα-induced stress fiber development” value ([1]; TNFα 50 ng/ml, danazol 0.1 μM or 10 μM, LY294002 10 μM) was “decreased the number of cells exhibiting stress fiber development”. For the same molecule, the “effect on S1P-induced cortical actin rings” value ([2]; danazol 1 μM with S1P 1 μM, at 3 hours) was “seemed to enhance the cortical rings”, the “effect on TNFα-induced stress fibers” value ([2]; danazol 1 μM with TNFα 1 ng/ml) was “decreased the stress fiber formation and/or the thickness of the fibers at all times” and the “effect on Akt phosphorylation” value (Akt) was “caused an increase in Akt phosphorylation”. For the same molecule, the “effect on FCS-induced cell invasion” value (HUVECs [3]) was “no effect”, the “effect on the TER reduction caused by hydroxyflutamide” value [4, 16] was “prevented the reduction caused by hydroxyflutamide” and the “effect on TER compared to the control” value [4] was “increased the TER measurements”. The “effect on VE-cadherin phosphorylation” value (VE-Cadherin) was “caused an increase in VE-cadherin phosphorylation”, the “effect on TER” value [5] was “enhanced TER measurements” and the “effect on TER” value [6] was “enhanced TER measurements”. For the same molecule, the “effect on HUVEC migration” value (HUVECs [7]) was “significantly inhibit HUVEC migration”, the “effect on TER” value [8] was “did not appear to have much effect” and the “effect on TNFα-induced stress fibers” value [9] was “decreased the stress fiber formation and the thickness of the fibers at all times”. The “effect on the TER reduction caused by hydroxyflutamide” value [10, 16] was “prevented the reduction caused by hydroxyflutamide”, the “effect on TER compared to the control” value [10] was “increased the TER measurements” and the “time after treatment until which there was no effect on ECIS” value [11] was “about 30 hours”. For the same molecule, the “effect on VEGF-induced stress fiber pattern” value ([12]; 0.1 μM danazol 30 minutes) was “made the stress fibers less pronounced and some diffuse staining appeared”, the F-actin staining pattern ([12]; 0.1 μM danazol alone) was “diffuse F-actin staining throughout the cytoplasm” and the “effect on VEGF-induced stress fiber pattern” value ([12]; 1.0 μM danazol 30 minutes) was “fewer thick stress fibers, but focal points were seen on contact surfaces”. The F-actin staining pattern ([12]; 1.0 μM danazol alone) was “the diffuse staining persisted, but stress fibers and focal points around the perimeter of most cells were visible”, the “effect on VEGF-induced stress fiber pattern” value ([12]; 10.0 μM danazol 30 minutes) was “strong stress fiber development with focal points” and the F-actin staining pattern ([12]; 10.0 μM danazol alone) was “no longer any diffuse staining, and stress fiber development and focal points were seen”. For the same molecule, the “effect on tube formation” value (HUVECs [13]; 1 μM or 10 μM) was “no effect on tube formation”, the “effect on tube formation” value (HUVECs [13]; 50 μM) was “effective inhibitor of tube formation” and the “effect on cell proliferation” value [14] was “complete arrest of cell proliferation”.
In the case of VEGF, the “effect on VE-cadherin phosphorylation” value (VE-Cadherin) is reported as “caused an even greater increase in VE-cadherin phosphorylation”, the “Relative intensity - SYPRO results (total protein)” value (VE-Cadherin; Nil (ethanol control) 1.00) is reported as 0.84 and the F-actin staining pattern ([12]; VEGF 25 ng/ml alone, 30 minutes) is reported as “strong stress fiber development”.
With `C[C@]12CC[C@@H]3c4ccc(O)cc4C[C@@H](CCCCCCCCC[S+]([O-])CCCC(F)(F)C(F)(F)F)[C@H]3[C@@H]1CC[C@@H]2O` (stereo partly drawn) [Fluvestrant, fluvestrant] the “effect on TER compared to the control” value [4] was “increased the TER measurements” and the “effect on TER compared to the control” value [10] was “essentially no effect”.
For `CCCCCCCCCCCCC/C=C/[C@@H](O)[C@@H](N)COP(=O)(O)O` [S1P, sphingosine-1 phosphate], the “time after treatment until which there was no effect on ECIS” value [11] was “about 30 hours”, the “start of increase of ECIS as compared to untreated cells, after treatment” value ([15]; S1P 1 μM alone) was at most 15 min and the “persistence of increase of ECIS” value ([15]; danazol 1.0 μM, S1P 1 μM) was “about 3 hours”.
With `C[C@]12CC[C@H]3[C@@H](CCC4=CC(=O)CC[C@@]43C)[C@@H]1CC[C@@H]2O` [Testosterone, testosterone] the “effect on TER compared to the control” value [10] was “reduced the readings very slightly”.
In the case of `CC(C)(O)C(=O)Nc1ccc([N+](=O)[O-])c(C(F)(F)F)c1` [Hydroxyflutamide, hydroxyflutamide], the “effect on TER compared to the control” value [4] is reported as “reduced the readings” and the “effect on TER compared to the control” value [10] is reported as “reduced the readings”.
